US20150057226A1, “METHOD FOR TREATMENT OF LABOR ARREST” (DILAFOR AB, priority 2012, published 2015)
Positions of bridges follow the written chain, without caps; N, C: chain ends. Non-standard residues stand in square brackets, D forms with d. Residues, ends and D or L forms follow the SMILES beside them. Orn = NCCC[C@H](N)C(=O)O; Mpa = O=C(O)CCS

Columns and labels:
[1] = test system: Human uterine smooth muscle cells; assay: Intracellular Ca2+ with Fluo-4, live cell confocal imaging; type: cell-based
Experimental: Human uterine smooth muscle cells were established in a culture. Intracellular Ca^2+ was measured with the calcium indicator dye Fluo-4 and live cell imaging with confocal microscopy was established for the cells.
It was further investigated if the main transport mechanism of inositol-3 phosphate (IP3) stimulated Ca^2+ transport of the endoplasmatic reticulum. To study this pathway, 2-Aminoethoxydiphenyl borate (2-APB) was tested on Ca^2+ after 30 min of incubation with a concentration of 100 μM.
To further characterize the interaction between oxytocin and DF01 the effect of the oxytocin receptor antagonist Atosiban was used and the cells subjected to the DF01 enhanced oxytocin effect on Ca^2+ transport.

[2] = subcutaneous; species not stated; cited from earlier work

NCCOB(c1ccccc1)c1ccccc1 [2-APB, 2-Aminoethoxydiphenyl borate]
effect on oxytocin and oxytocin/DF01 stimulated Ca2+-transport ([1]; 100 μM, after 30 min of incubation): decreased strongly

CCOc1ccc(C[C@H]2NC(=O)CCSSC[C@@H](C(=O)N3CCC[C@H]3C(=O)N[C@@H](CCCN)C(=O)NCC(N)=O)NC(=O)[C@H](CC(N)=O)NC(=O)[C@H]([C@@H](C)O)NC(=O)[C@H]([C@@H](C)CC)NC2=O)cc1 [Atosiban] ([Mpa][dY](Et)ITNCP[Orn]G-NH2; disulfide 1-6)
effect on oxytocin and oxytocin/DF01 effect on Ca2+ transport ([1]; 10^−6 M): clearly inhibited

CC[C@H](C)[C@@H]1NC(=O)[C@H](Cc2ccc(O)cc2)NC(=O)[C@@H](N)CSSC[C@@H](C(=O)N2CCC[C@H]2C(=O)N[C@@H](CC(C)C)C(=O)NCC(N)=O)NC(=O)[C@H](CC(N)=O)NC(=O)[C@H](CCC(N)=O)NC1=O [oxytocin]
Ca2+-influx to the cytosol ([1]; cells treated with oxytocin): demonstrated | oxytocin concentration giving maximum effect on Ca2+-influx ([1]; dose-dependent effect): 0.05 IU/ml

heparin
corresponding bioavailability [2]: about 10%
